{"source": "patent US7087629B2", "about": "“Heterocyclylaminomethyloxazolidinones as antibacterials” (AstraZeneca AB, priority 1998, dated 2006)", "assay_type_in_all_cases": "cell-based", "key": {"Enterococcus faecalis": {"test_system": "Enterococcus faecalis", "experiment": "MIC by agar-dilution, Enterococcus faecalis", "settings": "agar with 5% defibrinated horse blood, 10^4 CFU/spot, 37° C., 5% carbon dioxide, 48 hours", "protocol": "(§1) The following results were obtained on a standard in-vitro test system. The activity is described in terms of the minimum inhibitory concentration (MIC) detemined by the agar-dilution technique with an inoculum size of 10^4 CFU/spot. Typically, compounds are active in the range 0.01 to 256 μg/ml. Streptococci and enterococci were tested on agar supplemented with 5% defibrinated horse blood, an inoculum of 10^4 CFU/spot and an incubation temperature of 37° C. in an atmosphere of 5% carbon dioxide for 48 hours—blood is required for the growth of some of the test organisms."}, "[1]": {"test_system": "Coagulase Negative Staphylococci MR (methicillin resistant)", "experiment": "MIC by agar-dilution, Coagulase Negative Staphylococci MR", "settings": "inoculum 10^4 CFU/spot, 37° C., 24 hours", "protocol": "(§2) The following results were obtained on a standard in-vitro test system. The activity is described in terms of the minimum inhibitory concentration (MIC) detemined by the agar-dilution technique with an inoculum size of 10^4 CFU/spot. Typically, compounds are active in the range 0.01 to 256 μg/ml.\n(§3) Staphylococci were tested on agar, using an inoculum of 10^4 CFU/spot and an incubation temperature of 37° C. for 24 hours—standard test conditions for the expression of methicillin resistance."}, "[2]": {"test_system": "Staphylococcus aureus Oxford", "experiment": "MIC by agar-dilution, Staphylococcus aureus Oxford", "settings": "inoculum 10^4 CFU/spot, 37° C., 24 hours", "protocol": "as §2, §3"}, "[3]": {"test_system": "Streptococcus pyogenes C203", "experiment": "MIC by agar-dilution, Streptococcus pyogenes C203", "settings": "agar with 5% defibrinated horse blood, 10^4 CFU/spot, 37° C., 5% carbon dioxide, 48 hours", "protocol": "as §1"}, "Bacillus subtilis": {"test_system": "Bacillus subtilis", "experiment": "MIC by agar-dilution, Bacillus subtilis", "settings": "inoculum 10^4 CFU/spot", "protocol": "as §2"}, "[4]": {"test_system": "Coagulase Negative Staphylococci MS (methicillin sensitive)", "experiment": "MIC by agar-dilution, Coagulase Negative Staphylococci MS", "settings": "inoculum 10^4 CFU/spot, 37° C., 24 hours", "protocol": "as §2, §3"}, "[5]": {"test_system": "Staphylococcus aureus MRQR (methicillin resistant quinolone resistant)", "experiment": "MIC by agar-dilution, Staphylococcus aureus MRQR", "settings": "inoculum 10^4 CFU/spot, 37° C., 24 hours", "protocol": "as §2, §3"}, "[6]": {"test_system": "Staphylococcus aureus Novb. Res (Novobiocin resistant)", "experiment": "MIC by agar-dilution, Staphylococcus aureus Novb. Res", "settings": "inoculum 10^4 CFU/spot, 37° C., 24 hours", "protocol": "as §2, §3"}}, "data": [{"compound": "O=C1O[C@@H](CNc2ccon2)CN1c1ccc(N2CCOCC2)c(F)c1", "note": "[Example 2, 5(S)-Isoxazol-3-ylaminomethyl-3-(3-fluoro-4-morpholinophenyl)-oxazolidin-2-one]", "values": [{"measurement": "MIC", "setting": "Enterococcus faecalis", "value": 2, "unit": "µg/mL"}, {"measurement": "MIC", "setting": "[1]", "value": 1, "unit": "µg/mL"}, {"measurement": "MIC", "setting": "[2]", "value": 0.5, "unit": "µg/mL"}, {"measurement": "MIC", "setting": "[3]", "value": 1, "unit": "µg/mL"}, {"measurement": "MIC", "setting": "Bacillus subtilis", "value": 0.5, "unit": "µg/mL"}, {"measurement": "MIC", "setting": "[4]", "value": 0.5, "unit": "µg/mL"}, {"measurement": "MIC", "setting": "[5]", "value": 1, "unit": "µg/mL"}, {"measurement": "MIC", "setting": "[6]", "value": 1, "unit": "µg/mL"}]}]}
